Test results published in PubChem BioAssay AID248 (DTP/NCI, 2004).
Several values for one entry are separate records, joined by “and”; a condition that tells them apart may be missing. Identical values can stand only once. Toxic doses and inconclusive results are not listed. No stated cut-off is given here; in the data, active means T/C of 150% or more; inactive means T/C below 125%.

Tested on: L1210 leukemia ip in BDF1 mice, survival T/C
Assay: NCI In Vivo Anticancer Drug Screen. Data for tumor model L1210 Leukemia (intraperitoneal) in B6D2F1 (BDF1) mice
Details: endpoint: mean survival time, higher = longer survival
Summary of the method: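 Mice bearing the transplanted tumor received compound or vehicle. Survival of the treated group was divided by that of the vehicle-treated control group to give the ratio.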

[1] = dose: 200.0 mg/kg/injection, schedule: Q01DX001 (ip), vehicle: carboxymethylcellulose (CMC)
[2] = dose: 400.0 mg/kg/injection, schedule: Q01DX001 (ip), vehicle: carboxymethylcellulose (CMC)
[3] = dose: 100.0 mg/kg/injection, schedule: Q04DX002 (ip), vehicle: saline
[4] = dose: 200.0 mg/kg/injection, schedule: Q04DX002 (ip), vehicle: saline
[5] = dose: 100.0 mg/kg/injection, schedule: Q04DX002 (ip), vehicle: saline with Tween-80
[6] = dose: 200.0 mg/kg/injection, schedule: Q04DX002 (ip), vehicle: saline with Tween-80
[7] = dose: 400.0 mg/kg/injection, schedule: Q04DX002 (ip), vehicle: saline with Tween-80

Measured: T/C

c1c[nH]c(Cc2ccc3ccccc3c2)c1
inactive: dose: 100.0 mg/kg/injection, schedule: Q01DX009 (ip), vehicle: other 110 % of control | dose: 100.0 mg/kg/injection, schedule: Q04DX003 (ip), vehicle: other 102 % of control | dose: 200.0 mg/kg/injection, schedule: Q01DX009 (ip), vehicle: other 97 % of control | dose: 200.0 mg/kg/injection, schedule: Q04DX003 (ip), vehicle: other 101 % of control | dose: 400.0 mg/kg/injection, schedule: Q01DX009 (ip), vehicle: other 110 % of control | dose: 400.0 mg/kg/injection, schedule: Q04DX003 (ip), vehicle: other 102 % of control

NOCCCCCCON
inactive: dose: 100.0 mg/kg/injection, schedule: Q04DX003 (ip), vehicle: saline 95 % of control | dose: 200.0 mg/kg/injection, schedule: Q04DX003 (ip), vehicle: saline 97 % of control | dose: 400.0 mg/kg/injection, schedule: Q04DX003 (ip), vehicle: saline 95 % of control

O=c1n(C2OC(CO)C(O)C2O)ccc2nccn12 (stereo unspecified)
inactive: dose: 2.5 mg/kg/injection, schedule: Q01DX009 (ip), vehicle: saline 98 % of control | dose: 3.13 mg/kg/injection, schedule: Q03HX024 (ip), vehicle: saline 98 % of control | dose: 5.0 mg/kg/injection, schedule: Q01DX009 (ip), vehicle: saline 95 % of control | dose: 6.25 mg/kg/injection, schedule: Q03HX024 (ip), vehicle: saline 96 % of control | dose: 10.0 mg/kg/injection, schedule: Q01DX009 (ip), vehicle: saline 98 % of control | dose: 12.5 mg/kg/injection, schedule: Q03HX024 (ip), vehicle: saline 100 % of control | dose: 20.0 mg/kg/injection, schedule: Q01DX009 (ip), vehicle: saline 106 % of control | dose: 25.0 mg/kg/injection, schedule: Q03HX024 (ip), vehicle: saline 100 % of control | dose: 40.0 mg/kg/injection, schedule: Q01DX009 (ip), vehicle: saline 101 % of control | dose: 50.0 mg/kg/injection, schedule: Q01DX005 (ip), vehicle: saline 95 % of control | dose: 50.0 mg/kg/injection, schedule: Q03HX024 (ip), vehicle: saline 122 % of control | dose: 100.0 mg/kg/injection, schedule: Q01DX005 (ip), vehicle: saline 103 % of control | dose: 200.0 mg/kg/injection, schedule: Q01DX005 (ip), vehicle: saline 92 % of control | dose: 400.0 mg/kg/injection, schedule: Q01DX005 (ip), vehicle: saline 94 % of control

O=C(CNC(=O)c1ccc(Cl)cc1Cl)N/N=C/c1cccc([N+](=O)[O-])c1
inactive: dose: 12.5 mg/kg/injection, schedule: Q01DX009 (ip), vehicle: saline with Tween-80 96 % of control | dose: 50.0 mg/kg/injection, schedule: Q01DX009 (ip), vehicle: saline with Tween-80 89 % of control

CCCCCCCC(=O)OCCCl
inactive: dose: 100.0 mg/kg/injection, schedule: Q01DX009 (ip), vehicle: saline 94 % of control | dose: 200.0 mg/kg/injection, schedule: Q01DX009 (ip), vehicle: saline 97 % of control | dose: 400.0 mg/kg/injection, schedule: Q01DX009 (ip), vehicle: saline 91 % of control

COc1cc(N(CCCl)CCCl)c(OC)cc1C=Nc1cccc(F)c1
inactive: dose: 12.5 mg/kg/injection, schedule: Q01DX001 (ip), vehicle: Klucel (hydroxypropylcellulose) (HPC) 96 % of control | dose: 13.0 mg/kg/injection, schedule: Q01DX009 (ip), vehicle: carboxymethylcellulose (CMC) 116 % of control | dose: 20.0 mg/kg/injection, schedule: Q01DX001 (ip), vehicle: Klucel (hydroxypropylcellulose) (HPC) 117 % of control | dose: 20.0 mg/kg/injection, schedule: Q01DX009 (ip), vehicle: carboxymethylcellulose (CMC) 120 % of control | dose: 25.0 mg/kg/injection, schedule: Q01DX001 (ip), vehicle: Klucel (hydroxypropylcellulose) (HPC) 101 % of control | dose: 30.0 mg/kg/injection, schedule: Q01DX009 (ip), vehicle: carboxymethylcellulose (CMC) 118 % of control | dose: 50.0 mg/kg/injection, schedule: Q01DX001 (ip), vehicle: Klucel (hydroxypropylcellulose) (HPC) 98 % of control | dose: 75.0 mg/kg/injection, schedule: Q01DX001 (ip), vehicle: Klucel (hydroxypropylcellulose) (HPC) 101 % of control and 118 % of control | dose: 177.0 mg/kg/injection, schedule: Q01DX001 (ip), vehicle: carboxymethylcellulose (CMC) 122 % of control | [1] 102 % of control | dose: 600.0 mg/kg/injection, schedule: Q01DX001 (ip), vehicle: carboxymethylcellulose (CMC) 124 % of control
active: [2] 153 % of control

COC1OC(CO)C(O)C1n1cnc2c(SC)ncnc21 (stereo unspecified)
inactive: [3] 107 % of control | [4] 104 % of control

S=C=NCC(Br)CBr (stereo unspecified)
inactive: dose: 6.25 mg/kg/injection, schedule: Q01DX009 (ip), vehicle: Klucel (hydroxypropylcellulose) (HPC) 104 % of control | dose: 12.5 mg/kg/injection, schedule: Q01DX009 (ip), vehicle: Klucel (hydroxypropylcellulose) (HPC) 103 % of control | dose: 12.5 mg/kg/injection, schedule: Q04DX003 (ip), vehicle: Klucel (hydroxypropylcellulose) (HPC) 95 % of control | dose: 25.0 mg/kg/injection, schedule: Q01DX009 (ip), vehicle: Klucel (hydroxypropylcellulose) (HPC) 87 % of control | dose: 25.0 mg/kg/injection, schedule: Q04DX003 (ip), vehicle: Klucel (hydroxypropylcellulose) (HPC) 105 % of control

CC(C=O)C=O
inactive: dose: 100.0 mg/kg/injection, schedule: Q01DX001 (ip), vehicle: Klucel (hydroxypropylcellulose) (HPC) 91 % of control | dose: 200.0 mg/kg/injection, schedule: Q01DX001 (ip), vehicle: Klucel (hydroxypropylcellulose) (HPC) 88 % of control | dose: 400.0 mg/kg/injection, schedule: Q01DX001 (ip), vehicle: Klucel (hydroxypropylcellulose) (HPC) 89 % of control

Cc1ccc(NC(=O)C(Cl)Cl)cc1Cl
inactive: dose: 50.0 mg/kg/injection, schedule: Q01DX009 (ip), vehicle: Klucel (hydroxypropylcellulose) (HPC) 103 % of control | dose: 100.0 mg/kg/injection, schedule: Q01DX009 (ip), vehicle: Klucel (hydroxypropylcellulose) (HPC) 107 % of control | dose: 200.0 mg/kg/injection, schedule: Q01DX009 (ip), vehicle: Klucel (hydroxypropylcellulose) (HPC) 98 % of control

N#CC1(Nc2ccc3c4c(cccc24)CC3)CCCCC1
inactive: [5] 95 % of control | [6] 109 % of control | [7] 95 % of control

CCn1cc(C(=O)O)c(=O)c2cccc(Cl)c21
inactive: dose: 25.0 mg/kg/injection, schedule: Q04DX002 (ip), vehicle: saline 100 % of control | dose: 50.0 mg/kg/injection, schedule: Q04DX002 (ip), vehicle: saline 107 % of control | [3] 107 % of control | [4] 99 % of control | dose: 400.0 mg/kg/injection, schedule: Q04DX002 (ip), vehicle: saline 118 % of control

Cc1ccc2c(ccc3nnc(C)n32)c1
inactive: dose: 50.0 mg/kg/injection, schedule: Q01DX001 (ip), vehicle: saline 109 % of control | dose: 100.0 mg/kg/injection, schedule: Q01DX001 (ip), vehicle: saline 103 % of control

Cc1ccc(C)n1CCO
inactive: dose: 44.0 mg/kg/injection, schedule: Q01DX Z (ip), vehicle: saline 106 % of control | dose: 66.0 mg/kg/injection, schedule: Q01DX Z (ip), vehicle: saline 94 % of control | dose: 100.0 mg/kg/injection, schedule: Q01DX Z (ip), vehicle: saline 96 % of control

CCCCCCCCOC(=O)Nc1ccc(S(=O)(=O)CC)cc1
inactive: dose: 100.0 mg/kg/injection, schedule: Q01DX001 (ip), vehicle: carboxymethylcellulose (CMC) 91 % of control | [1] 89 % of control | [2] 89 % of control

Cc1cccc(C)c1N=Nc1cc[n+]([O-])cc1
inactive: dose: 6.25 mg/kg/injection, schedule: Q04DX003 (ip), vehicle: saline with Tween-80 92 % of control | dose: 12.5 mg/kg/injection, schedule: Q04DX003 (ip), vehicle: saline with Tween-80 95 % of control | dose: 25.0 mg/kg/injection, schedule: Q04DX003 (ip), vehicle: saline with Tween-80 102 % of control and 92 % of control | dose: 50.0 mg/kg/injection, schedule: Q04DX003 (ip), vehicle: saline with Tween-80 100 % of control

CN=C(N)Nc1ccc(C(=O)Oc2ccc([N+](=O)[O-])cc2)cc1
inactive: dose: 25.0 mg/kg/injection, schedule: Q01DX009 (ip), vehicle: water 112 % of control | dose: 50.0 mg/kg/injection, schedule: Q01DX009 (ip), vehicle: water 102 % of control

Cc1ccc(N=Cc2cc(Br)ccc2O)cc1Cl
inactive: [5] 107 % of control | [6] 107 % of control | [7] 96 % of control

O=C1c2cccc3cc([N+](=O)[O-])cc(c23)C(=O)N1C(Cc1ccccc1)c1ccccc1 (stereo unspecified)
inactive: [5] 103 % of control | [6] 95 % of control | [7] 103 % of control
